In brackets after ≈: the same amount, converted by molar mass.
Tests used:
[1] = Solubility in buffers with different pHs and in water (Example 19); type: physicochemical; conditions: for solubility at 30 min: 37 °C, thermodynamic from solid
Procedure: The solubility results were all calculated based on the free form. The buffers with different pHs were prepared according to the United States Pharmacopeia (USP40-NF35).

[2] = test system: FGFR; conditions: cited from earlier work

With CNC(=O)c1cc(CCc2cnc(Nc3ccc(N4C[C@@H](C)N[C@@H](C)C4)cc3)nc2)c(Cl)c(OC)c1 [Compound 78, 4-chloro-3-(2-(2-((4-((3S,5R)-3,5-dimethylpiperazin-1-yl)phenyl)amino)pyrimidin-5-yl)ethyl)-5-methoxy-N-methylbenzamide] the “Solubility (in words)” value ([1]; all test media) was “greatly different solubility in different media”, the solubility at 30 min ([1]; pH 1.2 buffer (USP), pH 1.2, simulated gastric fluid, pH 1.2 buffer, 30 minutes, calculated based on the free form) was 721 µg/mL (≈ 1420 µM) and the solubility at 30 min ([1]; pH 2.1 buffer (USP), pH 2.1, aqueous buffer, pH 2.1 buffer, 30 minutes, calculated based on the free form) was 174 µg/mL (≈ 342 µM). The solubility at 30 min ([1]; pH 4.5 buffer (USP), pH 4.5, aqueous buffer, pH 4.5 buffer, 30 minutes, calculated based on the free form) was no more than 12600 µg/mL, the Solubility ([1]; pH 4.5 buffer, 37° C., 30 minutes, calculated based on the free form) was 12588.8 µg/mL (≈ 24700 µM) and the solubility at 30 min ([1]; pH 6.8 buffer (USP), pH 6.8, aqueous buffer, pH 6.8 buffer, 30 minutes, calculated based on the free form) was 67.5 µg/mL (≈ 133 µM). For the same compound, the solubility at 30 min ([1]; purified water, water, 30 minutes, calculated based on the free form) was 2.3 µg/mL (≈ 4.52 µM) and the “Inhibition of FGFR activity” value [2] was “can effectively inhibit FGFR activity”.
